Assay results published in patent publication US11926614B2, “1,2,4-triazole derivatives as tankyrase inhibitors” (priority 2018, dated 2024).
Like-named read-outs stand apart in the source and are kept apart here.

Legend:
TNKS2 = TNKS2 (Homo sapiens (Human), UniProt Q9H2K2); test: Biochemical IC50 TNKS2; conditions: read-out: Biochemical IC50 TNKS2
Description: (§1) XLfit (idbs) was used to determine the IC50-values in inhibition experiments. The following formula was chosen to fit the data points (Langmuir Binding Isotherm): fit=((A+(B*x))+4(C−B)*(1−exp((−1*D)*x)))/D)), res=(y−fit)

HEK293 = test: Cellular IC50 HEK293; format: cell-based
Description: as §1

[1] = Homo sapiens, HEK293, HEK293; read-out: Cellular IC50 HEK293
[2] = Homo sapiens, HEK293, read-out: Cellular IC50 HEK293

Sequence of TNKS2 (Q9H2K2 whole entry): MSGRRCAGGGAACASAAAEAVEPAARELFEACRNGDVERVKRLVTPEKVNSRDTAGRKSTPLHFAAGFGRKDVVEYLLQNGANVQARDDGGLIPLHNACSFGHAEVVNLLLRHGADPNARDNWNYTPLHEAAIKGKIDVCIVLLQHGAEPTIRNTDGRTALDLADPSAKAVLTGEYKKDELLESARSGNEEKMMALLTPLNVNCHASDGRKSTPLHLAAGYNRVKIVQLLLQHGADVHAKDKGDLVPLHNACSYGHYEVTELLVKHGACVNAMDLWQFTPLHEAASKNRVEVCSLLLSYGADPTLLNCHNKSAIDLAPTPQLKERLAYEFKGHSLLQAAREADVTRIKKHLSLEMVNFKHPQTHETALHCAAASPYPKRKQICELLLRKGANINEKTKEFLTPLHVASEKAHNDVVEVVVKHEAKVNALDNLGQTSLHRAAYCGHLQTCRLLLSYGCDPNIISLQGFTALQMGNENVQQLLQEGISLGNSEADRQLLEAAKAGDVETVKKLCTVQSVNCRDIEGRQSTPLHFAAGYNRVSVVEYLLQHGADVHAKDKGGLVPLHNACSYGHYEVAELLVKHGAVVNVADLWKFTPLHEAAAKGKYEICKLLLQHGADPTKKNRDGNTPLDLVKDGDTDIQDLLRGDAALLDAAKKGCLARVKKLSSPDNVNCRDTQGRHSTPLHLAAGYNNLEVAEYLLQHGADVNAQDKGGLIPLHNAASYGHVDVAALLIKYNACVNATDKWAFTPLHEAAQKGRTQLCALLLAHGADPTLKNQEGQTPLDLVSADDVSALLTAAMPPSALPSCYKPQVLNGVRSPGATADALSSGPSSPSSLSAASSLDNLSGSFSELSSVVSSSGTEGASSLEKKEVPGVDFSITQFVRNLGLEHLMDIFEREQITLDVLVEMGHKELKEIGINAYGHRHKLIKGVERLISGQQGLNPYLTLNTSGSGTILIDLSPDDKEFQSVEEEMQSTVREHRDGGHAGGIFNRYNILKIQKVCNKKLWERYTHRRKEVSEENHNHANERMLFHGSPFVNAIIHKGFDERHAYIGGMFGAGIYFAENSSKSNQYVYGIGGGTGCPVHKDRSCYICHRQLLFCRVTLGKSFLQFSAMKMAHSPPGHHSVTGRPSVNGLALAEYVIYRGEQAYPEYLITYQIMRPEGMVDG

SMILES | IC50 (TNKS2) [nM] | IC50 (HEK293; [1]) [nM] | IC50 (HEK293; [2]) [nM] | IC50 (HEK293; Homo sapiens, HEK293; read-out: Cellular IC50 HEK293) [nM]
COc1ccc(C(=O)N[C@H]2C[C@H](c3nnc(-c4ccncn4)n3-c3ccccc3Cl)C2)nc1 [Example 131, N-((1R,3r)-3-(4-(2-chlorophenyl)-5-(pyrimidin-4-yl)-4H-1,2,4-triazol-3-yl)cyclobutyl)-5-methoxypicolinamide] | 4.5 | 0.66 | – | –
CCOc1ccc(-c2nnc([C@H]3C[C@H](NC(=O)c4ccnc5cccnc45)C3)n2-c2ccccc2Cl)nc1 [Example 135, N-((1S,3r)-3-(4-(2-chlorophenyl)-5-(5-ethoxypyridin-2-yl)-4H-1,2,4-triazol-3-yl)cyclobutyl)-1,5-naphthyridine-4-carboxamide] | 1.9 | 0.33 | – | –
Cc1cccc(-c2nnc([C@H]3C[C@H](NC(=O)c4cccc5nccnc45)C3)n2-c2ccccc2F)n1 [Example 201, N-((1S,3r)-3-(4-(2-fluorophenyl)-5-(6-methylpyridin-2-yl)-4H-1,2,4-triazol-3-yl)cyclobutyl)quinoxaline-5-carboxamide] | 1.7 | – | 1.5 | –
CCOc1ccc(-c2nnc([C@H]3C[C@H](NC(=O)c4ccnc5cccnc45)C3)n2-c2ccccc2)nc1 [Example 69, N-((1r,3r)-3-(5-(5-ethoxypyridin-2-yl)-4-phenyl-4H-1,2,4-triazol-3-yl)cyclobutyl)-1,5-naphthyridine-4-carboxamide] | 2 | 0.712 | – | –
O=C(N[C@H]1C[C@H](c2nnc(-c3ccncn3)n2-c2ccccc2Cl)C1)c1ccnc2cccnc12 [Example 5, N-((1S,3r)-3-(4-(2-chlorophenyl)-5-(pyrimidin-4-yl)-4H-1,2,4-triazol-3-yl)cyclobutyl)-1,5-naphthyridine-4-carboxamide] | 0.85 | – | – | 1
CCOc1ccc(-c2nnc([C@H]3C[C@H](NC(=O)c4ccccn4)C3)n2-c2ccccc2)nc1 [Example 68, N-((1r,3r)-3-(5-(5-ethoxypyridin-2-yl)-4-phenyl-4H-1,2,4-triazol-3-yl)cyclobutyl)picolinamide] | 5.2 | – | 65 | –
CCOc1ccc(-c2nnc([C@H]3C[C@H](NC(=O)c4cc5occc5[nH]4)C3)n2-c2ccccc2F)nc1 [Example 151, N-((1S,3r)-3-(5-(5-ethoxypyridin-2-yl)-4-(2-fluorophenyl)-4H-1,2,4-triazol-3-yl)cyclobutyl)-4H-furo[3,2-13]pyrrole-5-carboxamide] | 14 | 35 | – | –
CCOc1ccc(-c2nnc([C@H]3C[C@H](NC(=O)c4cc5sccc5[nH]4)C3)n2-c2ccccc2F)nc1 [Example 149, N-((1S,3r)-3-(5-(5-ethoxypyridin-2-yl)-4-(2-fluorophenyl)-4H-1,2,4-triazol-3-yl)cyclobutyl)-4H-thieno[3,2-b]pyrrole-5-carboxamide] | 7.4 | 27 | – | –
O=C(N[C@H]1C[C@H](c2nnc(-c3ccncn3)n2-c2ccccc2Cl)C1)c1ccc(F)cc1 [Example 15, N-((1S,3r)-3-(4-(2-chlorophenyl)-5-(pyrimidin-4-yl)-4H-1,2,4-triazol-3-yl)cyclobutyl)-4-fluorobenzamide] | 4.1 | 30 | – | –
CCOc1ccc(-c2nnc([C@H]3C[C@H](NC(=O)c4cccc5c4OCCO5)C3)n2-c2ccccc2F)nc1 [Example 116, N-((1S,3r)-3-(5-(5-ethoxypyridin-2-yl)-4-(2-fluorophenyl)-4H-1,2,4-triazol-3-yl)cyclobutyl)-2,3-dihydrobenzo[b][1,4]dioxine-5-carboxamide] | 4.5 | 47 | – | –
O=C(N[C@H]1C[C@H](c2nnc(-c3nccs3)n2-c2ccccc2)C1)c1ccnc2cccnc12 [Example 33, N-((1r,3r)-3-(4-phenyl-5-(thiazol-2-yl)-4H-1,2,4-triazol-3-yl)cyclobutyl)-1,5-naphthyridine-4-carboxamide] | 3.1 | 4.3 | – | –
CCOc1ccc(-c2nnc(C34CC(NC(=O)c5ccnc6cc(F)cnc56)(C3)C4)n2-c2ccccc2)nc1 [Example 65, N-(3-(5-(5-ethoxypyridin-2-yl)-4-phenyl-4H-1,2,4-triazol-3-yl)bicyclo[1.1.1]pentan-1-yl)-7-fluoro-1,5-naphthyridine-4-carboxamide] | 1.4 | 10 | – | –
CCOc1ccc(-c2nnc([C@H]3C[C@H](NC(=O)c4nc5ccccc5[nH]4)C3)n2-c2ccc(C)s2)nc1 [Example 143, N-((1r,3r)-3-(5-(5-ethoxypyridin-2-yl)-4-(5-methylthiophen-2-yl)-4H-1,2,4-triazol-3-yl)cyclobutyl)-1H-benzo[d]imidazole-2-carboxamide] | 11 | 94 | – | –
O=C(N[C@H]1C[C@H](c2nnc(-c3nccs3)n2-c2cccnc2)C1)c1ccccn1 [Example 109, N-((1r,3r)-3-(4-(pyridin-3-yl)-5-(thiazol-2-yl)-4H-1,2,4-triazol-3-yl)cyclobutyl)picolinamide] | 800 | 4700 | – | –
O=C(N[C@H]1C[C@H](c2nnc(-c3ccc(OC4CC4)cn3)n2-c2ccccc2F)C1)c1ccccn1 [Example 106, N-((1S,3r)-3-(5-(5-cyclopropoxypyridin-2-yl)-4-(2-fluorophenyl)-4H-1,2,4-triazol-3-yl)cyclobutyl)picolinamide] | 8.6 | – | 49 | –
CCOc1ccc(-c2nnc([C@H]3C[C@H](NC(=O)c4cn(C)cn4)C3)n2-c2ccccc2F)nc1 [Example 117, N-((1S,3r)-3-(5-(5-ethoxypyridin-2-yl)-4-(2-fluorophenyl)-4H-1,2,4-triazol-3-yl)cyclobutyl)-1-methyl-1H-imidazole-4-carboxamide] | 87 | 550 | – | –
CCOc1ccc(-c2nnc([C@H]3C[C@H](NC(=O)c4cccc(C(F)(F)F)n4)C3)n2-c2ccccc2F)nc1 [Example 125, N-((1S,3r)-3-(5-(5-ethoxypyridin-2-yl)-4-(2-fluorophenyl)-4H-1,2,4-triazol-3-yl)cyclobutyl)-6-(trifluoromethyl)picolinamide] | 28 | 70 | – | –
CCOc1ccc(-c2nnc([C@H]3C[C@H](NC(=O)c4cc5cc(OC)ncc5[nH]4)C3)n2-c2ccccc2F)nc1 [Example 127, N-((1S,3r)-3-(5-(5-ethoxypyridin-2-yl)-4-(2-fluorophenyl)-4H-1,2,4-triazol-3-yl)cyclobutyl)-5-methoxy-1H-pyrrolo[2,3-c]pyridine-2-carboxamide] | 4.3 | 9.1 | – | –
CCOc1ccc(-c2nnc([C@H]3C[C@H](NC(=O)c4cccc5cn[nH]c45)C3)n2-c2ccccc2F)nc1 [Example 156, N-((1S,3r)-3-(5-(5-ethoxypyridin-2-yl)-4-(2-fluorophenyl)-4H-1,2,4-triazol-3-yl)cyclobutyl)-1H-indazole-7-carboxamide] | 21 | 67 | – | –
CCOc1ccc(-c2nnc([C@H]3C[C@H](NC(=O)c4ccnc5cc(F)cnc45)C3)n2-c2ccc(C)s2)nc1 [Example 84, N-((1r,3r)-3-(5-(5-ethoxypyridin-2-yl)-4-(5-methylthiophen-2-yl)-4H-1,2,4-triazol-3-yl)cyclobutyl)-7-fluoro-1,5-naphthyridine-4-carboxamide] | 1.6 | – | 1 | –
CCOc1ccc(-c2nnc([C@H]3C[C@H](NC(=O)c4ccc(F)cc4)C3)n2-c2ccccc2Cl)nc1 [Example 137, N-((1S,3r)-3-(4-(2-chlorophenyl)-5-(5-ethoxypyridin-2-yl)-4H-1,2,4-triazol-3-yl)cyclobutyl)-4-fluorobenzamide] | 4.9 | 10 | – | –
CCOc1ccc(-c2nnc([C@H]3C[C@H](NC(=O)c4ncccc4C)C3)n2-c2ccccc2F)nc1 [Example 102, N-((1S,3r)-3-(5-(5-ethoxypyridin-2-yl)-4-(2-fluorophenyl)-4H-1,2,4-triazol-3-yl)cyclobutyl)-3-methylpicolinamide] | 190 | 919 | – | –
CCOc1ccc(-c2nnc([C@H]3C[C@H](NC(=O)c4ccnc5cccnc45)C3)n2-c2ccncc2)nc1 [Example 168, N-((1r,3r)-3-(5-(5-ethoxypyridin-2-yl)-4-(pyridin-4-yl)-4H-1,2,4-triazol-3-yl)cyclobutyl)-1,5-naphthyridine-4-carboxamide] | 5.4 | – | 13 | –
O=C(N[C@H]1C[C@H](c2nnc(-c3nccs3)n2-c2ccccc2F)C1)c1ccc(F)cc1 [Example 28, 4-fluoro-N-((1S,3r)-3-(4-(2-fluorophenyl)-5-(thiazol-2-yl)-4H-1,2,4-triazol-3-yl)cyclobutyl)benzamide] | 51 | 240 | – | –
Cc1cccc(-c2nnc([C@H]3C[C@H](NC(=O)c4cc(F)cc5nccnc45)C3)n2-c2ccccc2F)n1 [Example 202, 7-fluoro-N-((1S,3r)-3-(4-(2-fluorophenyl)-5-(6-methylpyridin-2-yl)-4H-1,2,4-triazol-3-yl)cyclobutyl)quinoxaline-5-carboxamide] | 1.6 | – | 0.169 | –
O=C(N[C@H]1C[C@H](c2nnc(-c3ccncn3)n2-c2ccccc2Cl)C1)c1cccc(F)c1 [Example 14, N-((1S,3r)-3-(4-(2-chlorophenyl)-5-(pyrimidin-4-yl)-4H-1,2,4-triazol-3-yl)cyclobutyl)-3-fluorobenzamide] | 6.7 | 40 | – | –
CCOc1ccc(-c2nnc([C@H]3C[C@H](NC(=O)c4cccc5cccnc45)C3)n2-c2cccc(Cl)c2)nc1 [Example 139, N-((1r,3r)-3-(4-(3-chlorophenyl)-5-(5-ethoxypyridin-2-yl)-4H-1,2,4-triazol-3-yl)cyclobutyl)quinoline-8-carboxamide] | 8.7 | 4 | – | –
CCOc1ccc(-c2nnc([C@H]3C[C@H](NC(=O)c4cccc(C)n4)C3)n2-c2ccccc2F)nc1 [Example 119, N-((1S,3r)-3-(5-(5-ethoxypyridin-2-yl)-4-(2-fluorophenyl)-4H-1,2,4-triazol-3-yl)cyclobutyl)-6-methylpicolinamide] | 5 | 39 | – | –
